Test results as given in patent US7498327B2, “Indolylalkylamine metabolites as 5-hydroxytryptamine-6 ligands” (Wyeth, priority 2004, dated 2009).

Target: T1, human cloned 5-HT6 receptors (Homo sapiens, UniProt P50406)
T1 construct: expressed in transfected cells; host or cells: HeLa cells (membrane preparation)
Test: 5-HT6 binding affinity, [3H]-LSD displacement
Conditions: membranes of Hela cells expressing human cloned 5-HT6 receptors; [3H]-LSD 3.0 nM; 120 min, room temperature
Method: The affinity of test compounds for the serotonin 5-HT6 receptor is evaluated in the following manner. Cultured Hela cells expressing human cloned 5-HT6 receptors are harvested and centrifuged at low speed (1,000× g) for 10.0 min to remove the culture media. The harvested cells are suspended in half volume of fresh physiological phosphate buffered saline solution and recentrifuged at the same speed. This operation is repeated. The collected cells are then homogenized in ten volumes of 50 mM Tris.HCl (pH 7.4) and 0.5 mM EDTA. The homogenate is centrifuged at 40,000× g for 30.0 min and the precipitate is collected. The obtained pellet is resuspended in 10 volumes of Tris.HCl buffer and recentrifuged at the same speed. The final pellet is suspended in a small volume of Tris.HCl buffer and the tissue protein content is determined in aliquots of 10-25 μl volumes. […]
The bound complex caught on the filter disk is allowed to air dry and the radioactivity is measured in a Packard TopCount® equipped with six photomultiplier detectors, after the addition of 40.0 μl Microscint®-20 scintillant to each shallow well. The unifilter plate is heat-sealed and counted in a PackardTopCount® with a tritium efficiency of 31.0%.
Binding in the presence of varying concentrations of test compound is expressed as a percentage of specific binding in the absence of test compound. […]

T1 sequence (P50406 whole entry): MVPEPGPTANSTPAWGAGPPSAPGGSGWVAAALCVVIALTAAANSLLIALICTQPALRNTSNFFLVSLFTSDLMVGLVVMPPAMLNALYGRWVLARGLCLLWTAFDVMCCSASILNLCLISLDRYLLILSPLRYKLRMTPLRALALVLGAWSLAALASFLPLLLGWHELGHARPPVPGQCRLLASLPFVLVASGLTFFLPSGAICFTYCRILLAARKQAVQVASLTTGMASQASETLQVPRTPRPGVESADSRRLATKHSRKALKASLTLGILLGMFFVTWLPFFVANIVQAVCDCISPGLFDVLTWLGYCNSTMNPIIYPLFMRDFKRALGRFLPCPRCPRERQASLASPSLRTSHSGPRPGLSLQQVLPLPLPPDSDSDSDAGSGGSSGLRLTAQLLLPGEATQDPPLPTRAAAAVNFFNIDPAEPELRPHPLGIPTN

Compound: O=C(O)Cc1cn(S(=O)(=O)c2c(Cl)nc3sccn23)c2ccccc12 [Example 2, {1-[(6-Chloroimidazo[2,1-b][1,3]thiazol-5-yl)sulfonyl]-1H-indol-3-yl}acetic acid]
- Ki: 248 nM
